Results from US10645928B2, “Pesticidally active polycyclic derivatives with sulfur containing substituents” (Syngenta Participations AG, priority 2014, dated 2020).

Assays:
Assay type in all cases: in vivo
[1] = system: Spodoptera littoralis (Egyptian Cotton Leaf Worm); assay: Example B14: Spodoptera littoralis, sprayed cotton leaf discs, anti-feeding effect; conditions: foliar, 72 h, application rate of 200 ppm, L1 larvae, 3 days after infestation
Method: Cotton leaf discs were placed onto agar in 24-well microtiter plates and sprayed with aqueous test solutions prepared from 10,000 ppm DMSO stock solutions. After drying the leaf discs were infested with five L1 larvae. The samples were assessed for anti-feeding effect in comparison to untreated samples 3 days after infestation. Control of Spodoptera littoralis by a test sample is given when the anti-feedant effect is higher than the untreated sample.

[2] = system: Spodoptera littoralis (Egyptian Cotton Leaf Worm); assay: Example B20: Spodoptera littoralis, compound in agar absorbed by lettuce roots, mortality; conditions: 144 h, test rate of 12.5 ppm, uptake by lettuce roots, Spodoptera eggs, 6 days after infestation
From the text: Test compounds were applied by pipette prepared from 10,000 ppm DMSO stock solutions into 24-well plates and mixed with agar. Lettuce seeds were placed onto the agar and the multi well plate was closed by another plate which contained also agar. After 7 days the compound was absorbed by the roots and the lettuce grew into the lid plate. The lettuce leaves were then cut off into the lid plate.
Spodoptera eggs were pipetted through a plastic stencil onto a humid gel blotting paper and the lid plate was closed with it. The samples were assessed for mortality 6 days after infestation.

[3] = system: Spodoptera littoralis (Egyptian Cotton Leaf Worm); assay: Example B19: Spodoptera littoralis, compound in agar absorbed by lettuce roots, anti-feedant effect; conditions: 144 h, test rate of 12.5 ppm, uptake by lettuce roots, Spodoptera eggs, 6 days after infestation, read-out: anti-feeding
From the text: (§1) Test compounds were applied by pipette prepared from 10,000 ppm DMSO stock solutions into 24-well plates and mixed with agar. Lettuce seeds were placed onto the agar and the multi well plate was closed by another plate which contained also agar. After 7 days the compound was absorbed by the roots and the lettuce grew into the lid plate. The lettuce leaves were then cut off into the lid plate. Spodoptera eggs were pipetted through a plastic stencil onto a humid gel blotting paper and the lid plate was closed with it. The samples were assessed for anti-feedant effect in comparison to untreated samples 6 days after infestation.

[4] = system: Euschistus heros (Neotropical Brown Stink Bug); assay: Example B6: Euschistus heros, sprayed soybean leaves, mortality and growth inhibition; conditions: 120 h, application rate of 200 ppm, N2 nymphs, 5 days after infestation, read-out: effect in at least one of the two categories (mortality or growth inhibition)
Method: Soybean leaves on agar in 24-well microtiter plates were sprayed with aqueous test solutions prepared from 10,000 ppm DMSO stock solutions. After drying the leaves were infested with N2 nymphs. The samples were assessed for mortality and growth inhibition in comparison to untreated samples 5 days after infestation.

[5] = system: Euschistus heros (Neotropical Brown Stink Bug); assay: Example B5: Euschistus heros, sprayed soybean leaves, mortality; conditions: 120 h, application rate of 200 ppm, N2 nymphs, 5 days after infestation
Method: Soybean leaves on agar in 24-well microtiter plates were sprayed with aqueous test solutions prepared from 10,000 ppm DMSO stock solutions. After drying the leaves were infested with N2 nymphs. The samples were assessed for mortality 5 days after infestation.

[6] = system: Plutella xylostella (Diamond Back Moth); assay: Example B10: Plutella xylostella, treated artificial diet, growth inhibition; conditions: 120 h, application rate of 200 ppm, L2 larvae, 5 days after infestation
Method: 24-well microtiter plates with artificial diet were treated with aqueous test solutions prepared from 10,000 ppm DMSO stock solutions by pipetting. After drying, the plates were infested with L2 larvae (10 to 15 per well). The samples were assessed for growth inhibition in comparison to untreated samples 5 days after infestation. Control of Plutella xylostella by a test sample is given when the growth inhibition is higher than the untreated sample.

[7] = system: Plutella xylostella (Diamond Back Moth); assay: Example B12: Plutella xylostella, treated artificial diet, mortality; conditions: 120 h, application rate of 200 ppm, L2 larvae, 5 days after infestation
Method: (§2) 24-well microtiter plates with artificial diet were treated with aqueous test solutions prepared from 10,000 ppm DMSO stock solutions by pipetting. After drying, the plates were infested with L2 larvae (10 to 15 per well). The samples were assessed for mortality 5 days after infestation.

[8] = system: Plutella xylostella (Diamond Back Moth); assay: Example B13: Plutella xylostella, treated artificial diet, mortality and growth inhibition; conditions: 120 h, application rate of 200 ppm, L2 larvae, 5 days after infestation, read-out: effect in at least one of the two categories (mortality or growth inhibition)
Method: as §2, with “mortality and growth inhibition in comparison to untreated samples” for “mortality”

[9] = system: Spodoptera littoralis (Egyptian Cotton Leaf Worm); assay: Example B17: Spodoptera littoralis, sprayed cotton leaf discs, mortality, anti-feeding effect and growth inhibition; conditions: foliar, 72 h, application rate of 200 ppm, L1 larvae, 3 days after infestation, read-out: control (at least one of mortality, anti-feedant effect, growth inhibition)
Method: Cotton leaf discs were placed onto agar in 24-well microtiter plates and sprayed with aqueous test solutions prepared from 10,000 ppm DMSO stock solutions. After drying the leaf discs were infested with five L1 larvae. The samples were assessed for mortality, anti-feeding effect, and growth inhibition in comparison to untreated samples 3 days after infestation. Control of Spodoptera littoralis by a test sample is given when at least one of the categories mortality, anti-feedant effect, and growth inhibition is higher than the untreated sample.

[10] = system: Aedes aegypti (Yellow Fever Mosquito); assay: Example B23: Aedes aegypti, dry deposits in 12 well tissue culture plates, control; conditions: application rate of 200 ppm in ethanol, adult females, after 48 h and/or 24 h
Method: Test solutions, at an application rate of 200 ppm in ethanol, were applied to 12 well tissue culture plates. Once the deposits were dry, five, two to five day old adult female Aedes aegypti were added to each well, and sustained with a 10% sucrose solution in a cotton wool plug. Assessment of knockdown was made one hour after introduction, and mortality was assessed at 24 and 48 hours after introduction.

[11] = system: Diabrotica balteata (Corn Root Worm); assay: Example B2: Diabrotica balteata, sprayed maize sprouts, mortality and growth inhibition; conditions: 96 h, application rate of 200 ppm, L2 larvae, 4 days after infestation, read-out: effect in at least one of the two categories (mortality or growth inhibition)
Method: (§3) Maize sprouts placed onto an agar layer in 24-well microtiter plates were treated with aqueous test solutions prepared from 10,000 ppm DMSO stock solutions by spraying. After drying, the plates were infested with L2 larvae (6 to 10 per well). The samples were assessed for mortality and growth inhibition in comparison to untreated samples 4 days after infestation.

[12] = system: Myzus persicae (Green Peach Aphid); assay: Example B8: Myzus persicae, sprayed sunflower leaf discs, mortality; conditions: foliar, 144 h, application rate of 200 ppm, leaf disc spray, aphid population of mixed ages, 6 days after infestation
Method: Sunflower leaf discs were placed onto agar in a 24-well microtiter plate and sprayed with aqueous test solutions prepared from 10,000 ppm DMSO stock solutions. After drying, the leaf discs were infested with an aphid population of mixed ages. The samples were assessed for mortality 6 days after infestation.

[13] = system: Spodoptera littoralis (Egyptian Cotton Leaf Worm); assay: Example B16: Spodoptera littoralis, sprayed cotton leaf discs, mortality; conditions: foliar, 72 h, application rate of 200 ppm, L1 larvae, 3 days after infestation
Method: Cotton leaf discs were placed onto agar in 24-well microtiter plates and sprayed with aqueous test solutions prepared from 10,000 ppm DMSO stock solutions. After drying the leaf discs were infested with five L1 larvae. The samples were assessed for mortality 3 days after infestation.

[14] = system: Spodoptera littoralis (Egyptian Cotton Leaf Worm); assay: Example B18: Spodoptera littoralis, compound in agar absorbed by lettuce roots, mortality, anti-feedant effect and growth inhibition; conditions: 144 h, test rate of 12.5 ppm, uptake by lettuce roots, Spodoptera eggs, 6 days after infestation, read-out: effect in at least one of the three categories (mortality, anti-feeding, or growth inhibition)
From the text: as §1, with “pipette” for “pipette prepared”, “for mortality,” for “for”, “effect and growth inhibition” for “effect”

[15] = system: Diabrotica balteata (Corn Root Worm); assay: Example B3: Diabrotica balteata, sprayed maize sprouts, mortality; conditions: 96 h, application rate of 200 ppm, L2 larvae, 4 days after infestation
Method: as §3, with “mortality” for “mortality and growth inhibition in comparison to untreated samples”

[16] = system: Frankliniella occidentalis (Western Flower Thrips); assay: Example B7: Frankliniella occidentalis, sprayed sunflower leaf discs, mortality; conditions: foliar, 168 h, application rate of 200 ppm, population of mixed ages, 7 days after infestation
Method: Sunflower leaf discs were placed on agar in 24-well microtiter plates and sprayed with aqueous test solutions prepared from 10,000 DMSO stock solutions. After drying the leaf discs were infested with a Frankliniella population of mixed ages. The samples were assessed for mortality 7 days after infestation.

CCS(=O)(=O)c1cc(-n2ccc(C(F)(F)F)n2)ccc1-c1cn2cnc(C(F)(F)F)cc2n1 [Compound P1, 2-[2-ethylsulfonyl-4-[3-(trifluoromethyl)pyrazol-1-yl]phenyl]-7-(trifluoromethyl)imidazo[1,2-c]pyrimidine]
≥ 80%: pest or weed control at 200 ppm [1] | mortality at 12.5 ppm [2] | pest or weed control at 12.5 ppm [3] | percent effect (mortality or growth inhibition) at 200 ppm [4] | mortality at 200 ppm [5] | inhibition at 200 ppm [6] | mortality at 200 ppm [7] | percent effect (mortality or growth inhibition) at 200 ppm [8] | percent control (mortality, anti-feedant effect or growth inhibition) at 200 ppm [9] | pest or weed control at 200 ppm [10] | percent effect (mortality or growth inhibition) at 200 ppm [11] | mortality at 200 ppm [12] | mortality at 200 ppm [13] | percent effect (mortality, anti-feeding or growth inhibition) at 12.5 ppm [14] | mortality at 200 ppm [15]

CCS(=O)(=O)c1cc(-c2ccc(C(F)(F)F)cc2)ccc1-c1cn2cnc(C(F)(F)F)cc2n1 [Compound P2, 2-[2-ethylsulfonyl-4-[4-(trifluoromethyl)phenyl]phenyl]-7-(trifluoromethyl)imidazo[1,2-c]pyrimidine]
≥ 80%: pest or weed control at 200 ppm [1] | mortality at 200 ppm [7] | percent effect (mortality or growth inhibition) at 200 ppm [8] | percent control (mortality, anti-feedant effect or growth inhibition) at 200 ppm [9] | pest or weed control at 200 ppm [10] | percent effect (mortality or growth inhibition) at 200 ppm [11] | mortality at 200 ppm [13] | mortality at 200 ppm [15]

CCS(=O)(=O)c1cc(-c2ccc(Cl)cc2)ccc1-c1cn2cnc(C(F)(F)F)cc2n1 [Compound P3]
≥ 80%: pest or weed control at 200 ppm [1] | percent control (mortality, anti-feedant effect or growth inhibition) at 200 ppm [9] | percent effect (mortality or growth inhibition) at 200 ppm [11] | mortality at 200 ppm [13] | mortality at 200 ppm [15]

CCS(=O)(=O)c1cc(-c2ccc(C(F)(F)F)cc2)cnc1-c1cn2cnc(C(F)(F)F)cc2n1 [Compound P6, 2-[3-ethylsulfonyl-5-[4-(trifluoromethyl)phenyl]-2-pyridyl]-7-(trifluoromethyl)imidazo[1,2-c]pyrimidine]
≥ 80%: pest or weed control at 200 ppm [1] | mortality at 12.5 ppm [2] | pest or weed control at 12.5 ppm [3] | percent effect (mortality or growth inhibition) at 200 ppm [4] | mortality at 200 ppm [5] | mortality at 200 ppm [7] | percent effect (mortality or growth inhibition) at 200 ppm [8] | percent control (mortality, anti-feedant effect or growth inhibition) at 200 ppm [9] | pest or weed control at 200 ppm [10] | percent effect (mortality or growth inhibition) at 200 ppm [11] | mortality at 200 ppm [13] | percent effect (mortality, anti-feeding or growth inhibition) at 12.5 ppm [14] | mortality at 200 ppm [15]

CCS(=O)(=O)c1cc(-c2ccc(F)cc2F)cnc1-c1cn2cnc(C(F)(F)F)cc2n1 [Compound P11]
≥ 80%: pest or weed control at 200 ppm [1] | mortality at 12.5 ppm [2] | mortality at 200 ppm [16] | pest or weed control at 12.5 ppm [3] | percent effect (mortality or growth inhibition) at 200 ppm [4] | mortality at 200 ppm [5] | mortality at 200 ppm [7] | percent effect (mortality or growth inhibition) at 200 ppm [8] | percent control (mortality, anti-feedant effect or growth inhibition) at 200 ppm [9] | percent effect (mortality or growth inhibition) at 200 ppm [11] | mortality at 200 ppm [12] | mortality at 200 ppm [13] | percent effect (mortality, anti-feeding or growth inhibition) at 12.5 ppm [14] | mortality at 200 ppm [15]

CCS(=O)(=O)c1cc(-c2ccc(OC(F)(F)F)cc2)cnc1-c1cn2cnc(C(F)(F)F)cc2n1 [Compound P12]
≥ 80%: pest or weed control at 200 ppm [1] | mortality at 12.5 ppm [2] | pest or weed control at 12.5 ppm [3] | percent effect (mortality or growth inhibition) at 200 ppm [4] | mortality at 200 ppm [5] | mortality at 200 ppm [7] | percent effect (mortality or growth inhibition) at 200 ppm [8] | percent control (mortality, anti-feedant effect or growth inhibition) at 200 ppm [9] | pest or weed control at 200 ppm [10] | percent effect (mortality or growth inhibition) at 200 ppm [11] | mortality at 200 ppm [13] | percent effect (mortality, anti-feeding or growth inhibition) at 12.5 ppm [14] | mortality at 200 ppm [15]
